Experimental data taken from US10351547B2, “Somatostatin modulators and uses thereof” (priority 2016, dated 2019).
Read-outs that look alike come from different tables or passages of the source.

Target: human SSTR2 (Homo sapiens (Human), UniProt P30874)
Experiment: Human SSTR2 intracellular cAMP functional assay for agonists (HTRF)
Type: cell-based
In short: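 Cells bearing human SSTR2 exposed to compound for 20 minutes at 37 °C; after lysis, cAMP measured by time-resolved fluorescence (HTRF) and converted via a standard curve. EC50 calculated from cAMP versus compound concentration.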

[1] = CHO-K1 cells stably expressing human SSTR2, NKH477-stimulated cAMP, read-out: EC50 (inhibition of cAMP activities via human SST2R)

Sequence of human SSTR2 (P30874 whole entry): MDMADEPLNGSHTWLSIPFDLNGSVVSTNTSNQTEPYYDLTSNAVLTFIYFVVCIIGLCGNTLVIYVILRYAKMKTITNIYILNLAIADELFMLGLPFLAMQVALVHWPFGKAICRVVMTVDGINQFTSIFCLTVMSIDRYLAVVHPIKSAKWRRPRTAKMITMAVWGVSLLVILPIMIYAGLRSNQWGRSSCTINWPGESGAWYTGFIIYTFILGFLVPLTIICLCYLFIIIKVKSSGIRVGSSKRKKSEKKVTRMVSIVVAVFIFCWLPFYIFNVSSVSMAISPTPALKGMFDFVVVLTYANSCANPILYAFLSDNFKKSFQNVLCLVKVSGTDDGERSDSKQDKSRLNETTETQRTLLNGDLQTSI

Row | SMILES | EC50 [1] [nM] | EC50 [nM]
1 | Cc1cc(F)cc(-c2cnc3ccc(-c4cc(F)cc(C#N)c4O)cc3c2N2CC(CN)C2)c1 [2-17, 3-{4-[3-(aminomethyl)azetidin-1-yl]-3-(3-fluoro-5-methylphenyl)quinolin-6-yl}-5-fluoro-2-hydroxybenzonitrile] | 10 to 100 | –
2 | CCNCC1CN(c2c(-c3cc(C)cc(F)c3)cnc3ccc(-c4cc(F)cc(C#N)c4O)cc23)C1 [2-18, 3-(4-{3-[(ethylamino)methyl]azetidin-1-yl}-3-(3-fluoro-5-methylphenyl)quinolin-6-yl)-5-fluoro-2-hydroxybenzonitrile] | – | < 10
3 | N#Cc1cc(F)cc(-c2ccc3ncc(-c4cc(F)cc(Cl)c4)c(N4CC(CN)C4)c3c2)c1O [2-21, 3-{4-[3-(aminomethyl)azetidin-1-yl]-3-(3-chloro-5-fluorophenyl)quinolin-6-yl}-5-fluoro-2-hydroxybenzonitrile] | – | 10 to 100
4 | Cc1cc(Cl)cc(-c2cnc3ccc(-c4cc(F)cc(C#N)c4O)cc3c2N2CC(CN)C2)c1 [2-22, 3-{4-[3-(aminomethyl)azetidin-1-yl]-3-(3-chloro-5-methylphenyl)quinolin-6-yl}-5-fluoro-2-hydroxybenzonitrile] | – | 10 to 100
5 | N#Cc1cc(F)cc(-c2ccc3ncc(-c4cc(F)cc(F)c4)c(N4CC(CN)C4)c3c2)c1O [2-23, 3-{4-[3-(aminomethyl)azetidin-1-yl]-3-(3,5-difluorophenyl)quinolin-6-yl}-5-fluoro-2-hydroxybenzonitrile] | – | 100 to 1000
6 | Cc1cc(F)cc(-c2cnc3ccc(-c4cc(F)cc(C#N)c4O)cc3c2N2CC(CNCCF)C2)c1 [2-24, 5-fluoro-3-[3-(3-fluoro-5-methylphenyl)-4-(3-{[(2-fluoroethyl)amino]methyl}azetidin-1-yl)quinolin-6-yl]-2-hydroxybenzonitrile] | < 10 | –
7 | Cc1cc(F)cc(-c2cnc3ccc(-c4cc(F)cc(C#N)c4O)cc3c2N2CC(CNC(C)C)C2)c1 [2-25, 5-fluoro-3-[3-(3-fluoro-5-methylphenyl)-4-(3-{[(propan-2-yl)amino]methyl}azetidin-1-yl)quinolin-6-yl]-2-hydroxybenzonitrile] | < 10 | –
8 | CCNCC1CN(c2c(-c3cc(C)cc(F)c3)cnc3ccc(-c4cc(F)cc(C(N)=O)c4)cc23)C1 [2-26, 3-(4-{3-[(ethylamino)methyl]azetidin-1-yl}-3-(3-fluoro-5-methylphenyl)quinolin-6-yl)-5-fluorobenzamide] | < 10 | –
9 | COCCNCC1CN(c2c(-c3cc(C)cc(F)c3)cnc3ccc(-c4cc(F)cc(C#N)c4O)cc23)C1 [2-27, 3-[3-(3-fluoro-5-methylphenyl)-4-(3-{[(2-methoxyethyl)amino]methyl}azetidin-1-yl)quinolin-6-yl]-5-fluoro-2-hydroxybenzonitrile] | < 10 | –
10 | Cc1cc(F)cc(-c2cnc3ccc(-c4cc(F)cc(C#N)c4O)cc3c2N2CC(CNCCCF)C2)c1 [2-28, 5-fluoro-3-[3-(3-fluoro-5-methylphenyl)-4-(3-{[(3-fluoropropyl)amino]methyl}azetidin-1-yl)quinolin-6-yl]-2-hydroxybenzonitrile] | < 10 | –
11 | Cc1cc(F)cc(-c2cnc3ccc(-c4cc(F)cc(C#N)c4O)cc3c2N2CC(CNC3CC3)C2)c1 [2-29, 3-[4-(3-cyclopropylaminomethyl-azetidin-1-yl)-3-(3-fluoro-5-methyl-phenyl)-quinolin-6-yl]-5-fluoro-2-hydroxy-benzonitrile] | < 10 | –
12 | Cc1cc(F)cc(-c2cnc3ccc(-c4cc(F)cc(C#N)c4O)cc3c2N2CC(CN3CCCC3)C2)c1 [2-30, 5-fluoro-3-[3-(3-fluoro-5-methyl-phenyl)-4-(3-pyrrolidin-1-ylmethyl-azetidin-1-yl)-quinolin-6-yl]-2-hydroxy-benzonitrile] | < 10 | –
13 | CCCNCC1CN(c2c(-c3cc(C)cc(F)c3)cnc3ccc(-c4cc(F)cc(C#N)c4O)cc23)C1 [2-31, 5-fluoro-3-[3-(3-fluoro-5-methylphenyl)-4-{3-[(propylamino)methyl]azetidin-1-yl}quinolin-6-yl]-2-hydroxybenzonitrile] | < 10 | –
14 | Cc1cc(F)cc(-c2cnc3ccc(-c4cc(F)cc(C#N)c4O)cc3c2N2CC(CNC3COC3)C2)c1 [2-33, 5-fluoro-3-[3-(3-fluoro-5-methylphenyl)-4-(3-{[(oxetan-3-yl)amino]methyl}azetidin-1-yl)quinolin-6-yl]-2-hydroxybenzonitrile] | – | 10 to 100
15 | Cc1cc(F)cc(-c2cnc3ccc(-c4cc(F)cc(C#N)c4O)cc3c2N2CC(CN3CCOCC3)C2)c1 [2-35, 5-fluoro-3-[3-(3-fluoro-5-methylphenyl)-4-[3-(morpholin-4-ylmethyl)azetidin-1-yl]quinolin-6-yl]-2-hydroxybenzonitrile] | – | 100 to 1000
16 | CCNCC1CN(c2c(-c3cc(C)cc(F)c3)cnc3ccc(-c4c(C)ccc(F)c4O)cc23)C1 [2-38, 2-(4-{3-[(ethylamino)methyl]azetidin-1-yl}-3-(3-fluoro-5-methylphenyl)quinolin-6-yl)-6-fluoro-3-methylphenol] | < 10 | –

Row | SMILES | EC50 [1] [nM] | EC50 [nM]
17 | COCC(C)(C)NCC1CN(c2c(-c3cc(C)cc(F)c3)cnc3ccc(-c4cc(F)cc(C#N)c4O)cc23)C1 [2-39, 5-fluoro-3-[3-(3-fluoro-5-methylphenyl)-4-(3-{[(1-methoxy-2-methylpropan-2-yl)amino]methyl}azetidin-1-yl)quinolin-6-yl]-2-hydroxybenzonitrile] | – | 100 to 1000
18 | Cc1cc(F)cc(-c2cnc3ccc(-c4cc(F)cc(C#N)c4O)cc3c2N2CC(CNCC(C)(C)O)C2)c1 [2-40, 5-fluoro-3-[3-(3-fluoro-5-methylphenyl)-4-(3-{[(2-hydroxy-2-methylpropyl)amino]methyl}azetidin-1-yl)quinolin-6-yl]-2-hydroxybenzonitrile] | < 10 | –
19 | CCC(CO)NCC1CN(c2c(-c3cc(C)cc(F)c3)cnc3ccc(-c4cc(F)cc(C#N)c4O)cc23)C1 (stereo not shown) [2-41, 5-fluoro-3-[3-(3-fluoro-5-methylphenyl)-4-(3-{[(1-hydroxybutan-2-yl)amino]methyl}azetidin-1-yl)quinolin-6-yl]-2-hydroxybenzonitrile] | – | 10 to 100
20 | CCCNCC1CN(c2c(-c3cc(C)cc(F)c3)cnc3ccc(-c4cccc(C#N)c4O)cc23)C1 [2-42, 3-[3-(3-fluoro-5-methylphenyl)-4-{3-[(propylamino)methyl]azetidin-1-yl}quinolin-6-yl]-2-hydroxybenzonitrile] | < 10 | –
21 | Cc1cc(F)cc(-c2cnc3ccc(-c4cc(F)cc(C#N)c4O)cc3c2N2CC(CNCCO)C2)c1 [2-43, 5-fluoro-3-[3-(3-fluoro-5-methylphenyl)-4-(3-{[(2-hydroxyethyl)amino]methyl}azetidin-1-yl)quinolin-6-yl]-2-hydroxybenzonitrile] | < 10 | –
22 | CCN(CCO)CC1CN(c2c(-c3cc(C)cc(F)c3)cnc3ccc(-c4cc(F)cc(C#N)c4O)cc23)C1 [2-44, 3-[4-(3-{[ethyl(2-hydroxyethyl)amino]methyl}azetidin-1-yl)-3-(3-fluoro-5-methylphenyl)quinolin-6-yl]-5-fluoro-2-hydroxybenzonitrile] | – | 100 to 1000
23 | Cc1cc(F)cc(-c2cnc3ccc(-c4cc(F)cc(C#N)c4O)cc3c2N2CC(CNC3CCOC3)C2)c1 (stereo not shown) [2-45, 5-fluoro-3-[3-(3-fluoro-5-methylphenyl)-4-(3-{[(oxolan-3-yl)amino]methyl}azetidin-1-yl)quinolin-6-yl]-2-hydroxybenzonitrile] | – | 10 to 100
24 | CCCNCC1CN(c2c(-c3cc(C)cc(F)c3)cnc3ccc(-c4c(F)ccc(F)c4O)cc23)C1 [2-46, 3,6-difluoro-2-[3-(3-fluoro-5-methylphenyl)-4-{3-[(propylamino)methyl]azetidin-1-yl}quinolin-6-yl]phenol] | < 10 | –
25 | Cc1cc(F)cc(-c2cnc3ccc(-c4cc(F)cc(C#N)c4O)cc3c2N2CC(CN3CCC(F)(F)C3)C2)c1 [2-47, 3-(4-{3-[(3,3-difluoropyrrolidin-1-yl)methyl]azetidin-1-yl}-3-(3-fluoro-5-methylphenyl)quinolin-6-yl)-5-fluoro-2-hydroxybenzonitrile] | – | 100 to 1000
26 | Cc1cc(F)cc(-c2cnc3ccc(-c4cc(F)cc(C#N)c4O)cc3c2N2CC(CN3CC[C@@H](F)C3)C2)c1 [2-48, 5-fluoro-3-[3-(3-fluoro-5-methylphenyl)-4-(3-{[(3R)-3-fluoropyrrolidin-1-yl]methyl}azetidin-1-yl)quinolin-6-yl]-2-hydroxybenzonitrile] | < 10 | –
27 | Cc1cc(F)cc(-c2cnc3ccc(-c4cc(F)cc(C#N)c4O)cc3c2N2CC(CN3CC[C@H](F)C3)C2)c1 [2-49, 5-fluoro-3-[3-(3-fluoro-5-methylphenyl)-4-(3-{[(3 S)-3-fluoropyrrolidin-1-yl]methyl}azetidin-1-yl)quinolin-6-yl]-2-hydroxybenzonitrile] | < 10 | –
28 | Cc1cc(F)cc(-c2cnc3ccc(-c4cc(F)cc(C#N)c4O)cc3c2N2CC(CN3CCCCC3)C2)c1 [2-50, 5-fluoro-3-[3-(3-fluoro-5-methylphenyl)-4-[3-(piperidin-1-ylmethyl)azetidin-1-yl]quinolin-6-yl]-2-hydroxybenzonitrile] | – | 10 to 100
29 | Cc1cc(F)cc(-c2cnc3ccc(-c4cc(F)cc(C#N)c4O)cc3c2N2CC(CNCC(C)O)C2)c1 (stereo not shown) [2-51, 5-fluoro-3-[3-(3-fluoro-5-methylphenyl)-4-(3-{[(2-hydroxypropyl)amino]methyl}azetidin-1-yl)quinolin-6-yl]-2-hydroxybenzonitrile] | – | 10 to 100
30 | CCCNCC1CN(c2c(-c3cc(C)cc(F)c3)cnc3ccc(-c4cc(F)c(O)c(F)c4)cc23)C1 [2-52, 2,6-difluoro-4-[3-(3-fluoro-5-methylphenyl)-4-{3-[(propylamino)methyl]azetidin-1-yl}quinolin-6-yl]phenol] | – | 10 to 100
31 | COCOc1c(C#N)cc(F)cc1-c1ccc2ncc(-c3cc(C)cc(F)c3)c(N3CC(CNCCCO)C3)c2c1 [2-53, 5-fluoro-3-[3-(3-fluoro-5-methylphenyl)-4-(3-{[(3-hydroxypropyl)amino]methyl}azetidin-1-yl)quinolin-6-yl]-2-(methoxymethoxy)benzonitrile] | < 10 | –
